In patent US10111854B2, “Synthesis and use of amine-containing flavonoids as potent anti-leishmanial agents” (The Hong Kong Polytechnic University, priority 2014, dated 2018):

What was measured:
[1] = test system: L. donovani Ld39 promastigotes; assay: Anti-promastigote activity (MTS assay), L. donovani Ld39; format: cell-based; conditions: Leishmania donovani, 72 hours
Method in brief: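 Promastigotes (1×10^5 per well) in Schneider's medium pH 6.9 with 10% FBS, exposed to serial compound concentrations for 72 h at 27 °C. Viability by MTS/PMS reduction over 4 h, OD 490 nm; IC50 derived.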

[2] = Cytotoxicity, L929 fibroblasts; format: cell-based, mouse; conditions: mouse
Method: IC50 values of known antileishmanials and the amine-containing flavonoid monomers of the present invention to promastigotes (L. amazonensis LV78, L major FV1, L. donovani HU3, L. donovani 39), macrophages (Raw 264.7 and PEM) and mouse fibroblast (L929) were determined. The anti-promastigotes activities and cytotoxicity of the amine-containing flavonoid monomers of the invention are shown in Table 1.

[3] = Cytotoxicity, peritoneal elicited macrophages (PEM); format: cell-based, mouse; conditions: mouse, Cytotoxicity IC50, PEM
[4] = test system: L. amazonensis LV78 amastigotes; assay: Anti-amastigote activity in infected PEM, L. amazonensis LV78; format: cell-based; conditions: for Selective index (a)/(b): IC50 RAW264.7 over IC50 L. amazonensis LV78 amastigotes; for IC50: Leishmania amazonensis, 72 h, infected PEM, 3 days, Giemsa
Method in brief: (§1)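 Mouse peritoneal elicited macrophages on cover slips, infected overnight at 37 °C with late-log promastigotes at 20:1 parasite:macrophage, were washed and exposed to compound for 72 h at 37 °C. Giemsa staining gave percent infected macrophages and amastigotes per 100 macrophages, from which IC50 was calculated.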

[5] = test system: L. donovani HU3 amastigotes; assay: Anti-amastigote activity in infected PEM, L. donovani HU3; format: cell-based; conditions: for Selective index (a)/(b): IC50 RAW264.7 over IC50 L. donovani HU3 amastigotes; for IC50: Leishmania donovani, 72 h, infected PEM, 3 days, Giemsa, SSG-sensitive
Method in brief: as §1

[6] = test system: L. donovani Ld39 amastigotes (SSG-resistant); assay: Anti-amastigote activity in infected PEM, L. donovani Ld39; format: cell-based; conditions: for Selective index (a)/(c): IC50 RAW264.7 over IC50 L. donovani Ld39 amastigotes; for IC50: Leishmania donovani, 72 h, infected PEM, 3 days, Giemsa, SSG-resistant
Method in brief: as §1

RAW264.7 cells = assay: Reactive oxygen species (ROS) level, DCFDA, RAW264.7; format: cell-based, murine; conditions: for ROS induction in macrophages: RAW264.7
Method in brief: (§2)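 RAW264.7 macrophages or L. amazonensis promastigotes pre-loaded 1 h with 10 μM DCFDA (37 °C and 27 °C respectively), washed, then exposed to compounds (10 or 30 μM in macrophages; 30 μM in promastigotes). DCF fluorescence (ex 485 nm) read at 2–72 h, background from unstained cells subtracted.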

[7] = test system: L. amazonensis LV78 promastigotes; assay: Reactive oxygen species (ROS) level, DCFDA, promastigotes; format: cell-based; conditions: 30 μM
Method in brief: as §2

[8] = test system: L. donovani (LdAG83) promastigotes; assay: Anti-promastigote activity, wild type L. donovani LdAG83; format: cell-based; conditions: Leishmania donovani; printed in HU3 column; footnote *: wild type LdAG83 used instead of HU3

Row | SMILES | IC50 [1] | IC50 [2] | IC50 [3] | Selective index (a)/(b) [4] | IC50 [4] | Selective index (a)/(b) [5] | IC50 [5] | Selective index (a)/(c) [6] | IC50 [6] | RAW264.7 ROS Level, Relative fold (RF) (RAW264.7 cells; 10 μM, 2 hr) | RAW264.7 ROS Level, Relative fold (RF) (RAW264.7 cells; 10 μM, 4 hr) | RAW264.7 ROS Level, Relative fold (RF) (RAW264.7 cells; 10 μM, 6 hr) | RAW264.7 ROS Level, Relative fold (RF) (RAW264.7 cells; 10 μM, 8 hr) | RAW264.7 ROS Level, Relative fold (RF) (RAW264.7 cells; 10 μM, 20 hr) | ROS induction in macrophages (RAW264.7 cells; 10 μM) | RAW264.7 ROS Level, Relative fold (RF) (RAW264.7 cells; 30 μM, 2 hr) | RAW264.7 ROS Level, Relative fold (RF) (RAW264.7 cells; 30 μM, 4 hr) | RAW264.7 ROS Level, Relative fold (RF) (RAW264.7 cells; 30 μM, 6 hr) | RAW264.7 ROS Level, Relative fold (RF) (RAW264.7 cells; 30 μM, 20 hr) | RAW264.7 ROS Level, Relative fold (RF) (RAW264.7 cells; 30 μM, 46 hr) | other results
1 | O=c1cc(-c2ccc(OCCOCCN(Cc3ccccn3)Cc3ccccn3)cc2)oc2ccccc12 [FM09, 2-(4-(2-(2-(bis(pyridin-2-ylmethyl)amino)ethoxy)ethoxy)phenyl)-4H-chromen-4-one] | 500 ± 100 nM | > 33 µM | 22 µM | 63 | 300 nM | 47.3 | 400 nM | >51.1 | < 370 nM | 1.1 fold | 1.1 fold | 1.0 fold | 1.0 fold | 1.1 fold | No ROS induction | 1.3 fold | 1.4 fold | 1.3 fold | 1.4 fold | 2.1 fold | L. amazon LV78 promastigote ROS Level, Relative fold (RF) ([7]; 2 hr): 2.0 fold; L. amazon LV78 promastigote ROS Level, Relative fold (RF) ([7]; 4 hr): 2.1 fold; L. amazon LV78 promastigote ROS Level, Relative fold (RF) ([7]; 6 hr): 2.3 fold; L. amazon LV78 promastigote ROS Level, Relative fold (RF) ([7]; 20 hr): 3.2 fold; L. amazon LV78 promastigote ROS Level, Relative fold (RF) ([7]; 46 hr): 4.3 fold; L. amazon LV78 promastigote ROS Level, Relative fold (RF) ([7]; 72 hr): 6.2 fold
2 | O=c1cc(-c2ccc(OCCOCCN(CCOCCOc3ccc(-c4cc(=O)c5ccccc5o4)cc3)Cc3ccncc3)cc2)oc2ccccc12 [compound 39] | 210 ± 60 nM | 26.4 µM | > 100 µM | 232.6 | 430 nM | >500 | 200 ± 60 nM | 47.6 | 210 ± 60 nM | 0.9 fold | 0.9 fold | 0.9 fold | 0.8 fold | 0.9 fold | No ROS induction | 1.3 fold | 1.4 fold | 1.3 fold | 1.3 fold | 1.4 fold | IC50 [8]: 200 ± 30 nM; L. amazon LV78 promastigote ROS Level, Relative fold (RF) ([7]; 2 hr): 1.3 fold; L. amazon LV78 promastigote ROS Level, Relative fold (RF) ([7]; 4 hr): 1.3 fold; L. amazon LV78 promastigote ROS Level, Relative fold (RF) ([7]; 6 hr): 1.3 fold; L. amazon LV78 promastigote ROS Level, Relative fold (RF) ([7]; 20 hr): 1.6 fold; L. amazon LV78 promastigote ROS Level, Relative fold (RF) ([7]; 46 hr): 1.4 fold; L. amazon LV78 promastigote ROS Level, Relative fold (RF) ([7]; 72 hr): 1.6 fold
